According to paper PMC7915588, “Polyphyllin D Shows Anticancer Effect through a Selective Inhibition of Src Homology Region 2-Containing Protein Tyrosine Phosphatase-2 (SHP2)” (Molecules, 2021):

Columns and labels:
PTPN2 (TCPTP) = target: T1, PTPN2 (TCPTP) (Homo sapiens, UniProt P17706); assay: biochemical; design: Fluorogenic phosphatase assay, DiFMUP hydrolysis by recombinant PTPs, initial velocity, Ex/Em 355/460 nm; details: read-out: Inhibition by 20 µM polyphyllin D (%)
T1 construct: 1-387
T1 sequence (P17706 1-415): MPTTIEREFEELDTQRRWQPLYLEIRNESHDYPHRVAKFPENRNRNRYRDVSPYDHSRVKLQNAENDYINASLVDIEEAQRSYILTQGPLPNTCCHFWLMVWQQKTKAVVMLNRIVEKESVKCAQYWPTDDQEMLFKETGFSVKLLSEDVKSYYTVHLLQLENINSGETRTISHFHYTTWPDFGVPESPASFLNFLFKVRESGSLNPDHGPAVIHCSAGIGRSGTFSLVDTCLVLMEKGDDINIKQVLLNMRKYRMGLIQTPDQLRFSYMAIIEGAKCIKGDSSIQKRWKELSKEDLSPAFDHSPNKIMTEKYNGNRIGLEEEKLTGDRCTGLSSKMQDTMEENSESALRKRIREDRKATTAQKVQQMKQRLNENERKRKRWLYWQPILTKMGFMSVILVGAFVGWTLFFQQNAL
Description: (§1) Enzymatic reactions were initiated by the addition of SHP2 (final concentration of 10 nM) to a solution of each of the 658 phytochemical compounds (final concentration of 20 µM) in reaction buffer (20 mM bis-tris pH 6.0, 150 mM NaCl, 2.5 mM dithiothreitol, and 0.01% Triton X-100) containing DiFMUP (final concentration of 140 µM). Changes in the fluorescence intensities were measured continuously for 10 min at Ex/Em = 355/460 nm on a VictorTM X4 multilabel plate reader. Enzyme inhibition was estimated by comparing the reaction velocity in the presence of each compound with that in the absence of any compound. Inhibition of the other PTPs was measured in the same way. Next, we established a screening strategy using a DiFMUP substrate to identify a natural product that inhibits SHP2 activity. Initially, we screened 658 compounds at 20 µM using a 96-well plate system (Figure 2A). […] The selected compounds were tested at 20 µM for SHP2 inhibition, and 14 additional non-receptor-type PTPs (PTP1B, TCPTP, PTPH1, STEP, SHP1, HePTP, PTP-MEG2, PTP-PEST, PTP-BAS, PTP36, PTP-HSCF, PTPD1, LYP, and HD-PTP) were used to investigate the inhibition selectivity. The results were visualized using a heat map analysis by GraphPad Prism (Figure 2B and Table S2 in Supplementary Materials). To identify new SHP2 anticancer natural products, we first performed cloning to express SHP2 protein and then purified it. PTPN11 (Gene ID: 5781) encoding human SHP2 (amino acids sequences 1 to 526) with several extra amino acids were cloned into the MBP-pET 28a (+) vector, which was successfully used to overexpress PTPs with enhanced solubility in an Escherichia coli expression system. Information on amino acids for 15 non-receptor-type PTPs including SHP2 is summarized in Table S3 in the Supplementary Materials. SHP2 was overexpressed in RosettaTM (DE3) and purified using a metal affinity resin (Figure S1 in Supplementary Materials). […] The kcat, KM, and kcat/KM values were determined to be 270 min^−1, 70 μM, and 3.9 μM^−1min^−1, respectively, using the Lineweaver–Burk plot analysis (Table S1 in Supplementary Materials).

PTPN12 (PTP-PEST) = target: T2, PTPN12 (PTP-PEST) (Homo sapiens, UniProt Q05209); assay: biochemical; design: Fluorogenic phosphatase assay, DiFMUP hydrolysis by recombinant PTPs, initial velocity, Ex/Em 355/460 nm; details: read-out: Inhibition by 20 µM polyphyllin D (%)
T2 construct: 1-334
T2 sequence (Q05209 1-780): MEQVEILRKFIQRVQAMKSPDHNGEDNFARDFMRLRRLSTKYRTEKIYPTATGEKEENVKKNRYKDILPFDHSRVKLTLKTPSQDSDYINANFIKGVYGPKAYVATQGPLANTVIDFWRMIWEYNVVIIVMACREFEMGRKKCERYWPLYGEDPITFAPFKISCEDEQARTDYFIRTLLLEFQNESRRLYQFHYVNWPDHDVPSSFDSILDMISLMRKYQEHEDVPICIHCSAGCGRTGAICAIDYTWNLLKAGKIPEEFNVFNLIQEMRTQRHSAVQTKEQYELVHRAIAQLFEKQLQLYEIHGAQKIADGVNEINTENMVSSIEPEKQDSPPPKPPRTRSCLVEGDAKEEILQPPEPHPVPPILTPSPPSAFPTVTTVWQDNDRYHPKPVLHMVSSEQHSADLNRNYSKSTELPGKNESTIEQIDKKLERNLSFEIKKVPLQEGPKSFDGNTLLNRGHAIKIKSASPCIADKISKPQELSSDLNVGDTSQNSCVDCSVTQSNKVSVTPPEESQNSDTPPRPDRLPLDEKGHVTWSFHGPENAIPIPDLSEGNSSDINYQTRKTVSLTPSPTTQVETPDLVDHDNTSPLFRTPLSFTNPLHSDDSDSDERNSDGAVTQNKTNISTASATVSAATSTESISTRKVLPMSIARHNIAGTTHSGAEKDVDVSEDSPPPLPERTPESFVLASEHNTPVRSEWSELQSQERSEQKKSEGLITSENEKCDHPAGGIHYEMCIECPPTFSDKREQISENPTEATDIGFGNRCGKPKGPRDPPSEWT
Description: as §1

C[C@@H]1CC[C@@]2(OC1)O[C@H]1C[C@H]3[C@@H]4CC=C5C[C@@H](O[C@@H]6O[C@H](CO)[C@@H](O[C@@H]7O[C@@H](CO)[C@H](O)[C@H]7O)[C@H](O)[C@H]6O[C@@H]6O[C@@H](C)[C@H](O)[C@@H](O)[C@H]6O)CC[C@]5(C)[C@H]4CC[C@]3(C)[C@H]1[C@@H]2C [polyphyllin D]
inhibition at 20 µM (PTPN2 (TCPTP)): 7.5%
inhibition at 20 µM (PTPN12 (PTP-PEST)): 29.9%
